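Protocol summary: plate cells (96-well), add compound at 5 concentrations, incubate 48 h, interpolate endpoints linearly. Here, GI50 denotes the concentration required for 50% inhibition of growth.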 Active and inactive are the calls of the source. No stated cut-off is given here; in the data, active = GI50 up to about 1.1 µM and inactive = higher.
Key:
Assay in all cases: NCI anticancer screen, dose series, 48 h
[1] = test system: SN12C
[2] = test system: SK-OV-3
[3] = test system: TK-10
[4] = test system: SW-620
[5] = test system: SNB-75
[6] = test system: SR
[7] = test system: HL-60
[8] = test system: LXFL 529
[9] = test system: DMS-114
[10] = test system: SK-MEL-2
[11] = test system: NCI-H226
[12] = test system: DMS-273
[13] = test system: HCC 2998
[14] = test system: COLO 205
[15] = test system: SNB-78
[16] = test system: DLD-1
[17] = test system: MOLT-4
[18] = test system: OVCAR-4
[19] = test system: SNB-19
[20] = test system: UO-31
[21] = test system: HCT-116
[22] = test system: SK-MEL-5
[23] = test system: NCI-H460
[24] = test system: CCRF-CEM
[25] = test system: SF-539
[26] = test system: A498
[27] = test system: K562
[28] = test system: CAKI-1
[29] = test system: NCI-H522
[30] = test system: HCT-15
[31] = test system: Malme-3M
[32] = test system: SF-268
[33] = test system: IGROV-1
[34] = test system: 786-0
[35] = test system: KM-20L2
[36] = test system: HOP-18
[37] = test system: U-251
[38] = test system: HOP-62
[39] = test system: ACHN
[40] = test system: UACC-257
[41] = test system: SK-MEL-28
[42] = test system: RPMI-8226
[43] = test system: RXF 631
[44] = test system: OVCAR-8
[45] = test system: M14
[46] = test system: A549
[47] = test system: KM12
[48] = test system: RXF 393
[49] = test system: UACC-62
[50] = test system: M19-MEL
[51] = test system: HT-29
[52] = test system: EKVX
[53] = test system: OVCAR-5
[54] = test system: LOX IMVI
[55] = test system: OVCAR-3
[56] = test system: SF-295
[57] = test system: HOP-92

## CCOC(=O)NC/C=C/CO
[1]
  GI50: > 100 µM (inactive)
[2]
  GI50: > 100 µM (inactive)
[3]
  GI50: > 100 µM (inactive)
[4]
  GI50: > 100 µM (inactive)
[5]
  GI50: > 100 µM (inactive)
[6]
  GI50: > 100 µM (inactive)
[7]
  GI50: > 100 µM (inactive)
[8]
  GI50: > 100 µM (inactive)
[9]
  GI50: > 100 µM (inactive)
[10]
  GI50: > 100 µM (inactive)
[11]
  GI50: > 100 µM (inactive)
[12]
  GI50: > 100 µM (inactive)
[13]
  GI50: > 100 µM (inactive)
[14]
  GI50: > 100 µM (inactive)
[15]
  GI50: > 100 µM (inactive)
[16]
  GI50: > 100 µM (inactive)
[17]
  GI50: > 100 µM (inactive)
[18]
  GI50: > 100 µM (inactive)
[19]
  GI50: > 100 µM (inactive)
[20]
  GI50: > 100 µM (inactive)
[21]
  GI50: > 100 µM (inactive)
[22]
  GI50: > 100 µM (inactive)
[23]
  GI50: > 100 µM (inactive)
[24]
  GI50: > 100 µM (inactive)
[25]
  GI50: > 100 µM (inactive)
[26]
  GI50: > 100 µM (inactive)
[27]
  GI50: > 100 µM (inactive)
[28]
  GI50: > 100 µM (inactive)
[29]
  GI50: > 100 µM (inactive)
[30]
  GI50: > 100 µM
[31]
  GI50: > 100 µM (inactive)
[32]
  GI50: > 100 µM (inactive)
[33]
  GI50: > 100 µM (inactive)
[34]
  GI50: > 100 µM (inactive)
[35]
  GI50: > 100 µM (inactive)
[36]
  GI50: > 100 µM (inactive)
[37]
  GI50: > 100 µM (inactive)
[38]
  GI50: > 100 µM (inactive)
[39]
  GI50: > 100 µM (inactive)
[40]
  GI50: > 100 µM (inactive)
[41]
  GI50: > 100 µM (inactive)
[42]
  GI50: > 100 µM (inactive)
[43]
  GI50: > 100 µM (inactive)
[44]
  GI50: > 100 µM (inactive)
[45]
  GI50: > 100 µM (inactive)
[46]
  GI50: > 100 µM (inactive)
[47]
  GI50: > 100 µM (inactive)
[48]
  GI50: > 100 µM (inactive)
[49]
  GI50: > 100 µM (inactive)
[50]
  GI50: > 100 µM (inactive)

## O=C(Nc1nc2ncn(CCNCc3ccccc3)c2c(=O)[nH]1)c1ccccc1
[1]
  GI50: > 100 µM (inactive)
[2]
  GI50: > 100 µM (inactive)
[3]
  GI50: > 100 µM (inactive)
[4]
  GI50: > 100 µM (inactive)
[5]
  GI50: 90.2 µM (inactive)
[6]
  GI50: > 100 µM (inactive)
[7]
  GI50: > 100 µM (inactive)
[8]
  GI50: > 100 µM (inactive)
[9]
  GI50: > 100 µM (inactive)
[51]
  GI50: > 100 µM (inactive)
[52]
  GI50: > 100 µM (inactive)
[10]
  GI50: > 100 µM (inactive)
[11]
  GI50: > 100 µM (inactive)
[12]
  GI50: > 100 µM (inactive)
[13]
  GI50: > 100 µM (inactive)
[53]
  GI50: > 100 µM (inactive)
[14]
  GI50: > 100 µM (inactive)
[15]
  GI50: > 100 µM (inactive)
[54]
  GI50: > 100 µM (inactive)
[16]
  GI50: > 100 µM (inactive)
[18]
  GI50: > 100 µM (inactive)
[20]
  GI50: 50.8 µM (inactive)
[21]
  GI50: > 100 µM (inactive)
[55]
  GI50: > 100 µM (inactive)
[22]
  GI50: > 100 µM (inactive)
[23]
  GI50: > 100 µM (inactive)
[56]
  GI50: > 100 µM (inactive)
[24]
  GI50: > 100 µM (inactive)
[57]
  GI50: > 100 µM (inactive)
[25]
  GI50: > 100 µM (inactive)
[26]
  GI50: > 100 µM (inactive)
[27]
  GI50: > 100 µM (inactive)
[28]
  GI50: > 100 µM (inactive)
[29]
  GI50: > 100 µM (inactive)
[30]
  GI50: > 100 µM
[31]
  GI50: > 100 µM (inactive)
[32]
  GI50: 63.8 µM (inactive)
[33]
  GI50: > 100 µM (inactive)
[34]
  GI50: > 100 µM (inactive)
[35]
  GI50: > 100 µM (inactive)
[36]
  GI50: > 100 µM (inactive)
[37]
  GI50: > 100 µM (inactive)
[38]
  GI50: > 100 µM (inactive)
[39]
  GI50: > 100 µM (inactive)
[40]
  GI50: > 100 µM (inactive)
[41]
  GI50: > 100 µM (inactive)
[42]
  GI50: 65.3 µM (inactive)
[43]
  GI50: 41.5 µM (inactive)
[44]
  GI50: > 100 µM (inactive)
[45]
  GI50: > 100 µM (inactive)
[46]
  GI50: > 100 µM (inactive)
[47]
  GI50: > 100 µM (inactive)
[48]
  GI50: 91 µM (inactive)
[49]
  GI50: > 100 µM (inactive)
[50]
  GI50: > 100 µM (inactive)

Reference: ChEMBL document CHEMBL1201862, “PubChem BioAssay data set” (2004)
